A word on the melting point: it is the temperature, or range, at which the solid turns liquid.

Consider 34 compounds from a melting point compilation (Tetko et al.; mined from patent text by program, amines drawn as free bases though some values may be those of a salt).

Each structure is given as a SMILES string.

For the compound `CC(C)=C1OC(=O)N(c2cc(OC3CCCC3)c(Cl)cc2F)C1=N`, the melting point is 131 to 133 °C.

In turn, `O=Cc1c2ccccc2c(Cl)c2cc(Cl)ccc12` gave a melting point of 174 to 175 °C.

`CCc1cccc(NC(=O)NCC(=O)N(CC(=O)N(C)c2ccccc2)c2ccccc2)c1`: the melting point was found to be 105 °C.

Regarding `CN(C)Cc1cccc(OCCCNc2nc(N)nn2C)c1`, the melting point lay in the range of 95 to 96.5 °C.

For `CC(C)c1ccc2nc3ccc(C(=O)NCCCCc4cccnc4)cc3c(=O)n2c1`, the melting point fell in the range of 247 to 249 °C.

`CC(=NO)C(C)(C)NCC(C)CNC(C)(C)C(Cn1ccnc1[N+](=O)[O-])=NO` (centres undefined) yielded a melting point of 167 to 168 °C.

In turn, `COC(=O)c1ccc2c(c1)CN(S(=O)(=O)c1ccc(C)cc1)C2` gave a melting point of 164 to 166 °C.

Take `OCCSc1ccc(O)cc1`: the melting point amounted to 70 °C.

Compound `NC(=O)c1cccc(-c2cccc3oc(Cc4cccc(C(F)(F)F)c4)cc23)c1` yielded a melting point of 159 to 160 °C.

`CCOCc1nc2c(N)nc3ccccc3c2n1CC(C)(O)CC` (centres undefined) registered a melting point of 189 to 191 °C.

`Cc1nc(N)sc1S(=O)(=O)N1CCC(O)C1` (racemic) yielded a melting point of 165 °C.

Compound `CCOC(=O)C1=C(N)N=C(OCC)C(C(=O)OCC)C1c1cc([N+](=O)[O-])ccc1Cl` (centres undefined) had a melting point of 136 to 137 °C.

Compound `C(#Cc1ccc(C=CC2=CC(c3ccc(C#Cc4ccccc4)cc3)N(c3ccccc3)N2)cc1)c1ccccc1` (centres undefined) came in with a melting point of 212 to 214 °C.

The compound `CC1CCc2c(Cl)c(F)cc3c(=O)c(C(=O)O)cn1c23` (centres undefined) returned a melting point of 297 to 298 °C.

`CCOC(=O)C=Cc1ccc(OC)nc1` had a melting point of 49 to 52 °C.

`O=C(c1ccccc1)c1ccc(-c2nc(COc3cccc(CCCn4ccnc4)c3)co2)cc1` showed a melting point of 97 to 98 °C.

Compound `CCOC(=O)CC(C)(C)NCC(O)c1ccc(O)c2[nH]c(C(=O)OCC)cc12` (centres undefined) registered a melting point of 175 to 178 °C.

On to `COc1ccc(-n2ncc(-c3ccc(C=Cc4ccc(-c5nc6ccccc6o5)cc4)cc3)n2)cc1`, for which the melting point amounted to 255 °C.

Turning to `CC(C)(C)COS(=O)(=O)c1ccc(Oc2c(Cl)cccc2[N+](=O)[O-])cc1`, the melting point is 111 to 112 °C.

`FC(F)(F)c1ccc(-c2cc(C(F)(F)F)n3ncc(-c4ccncc4)c3n2)cc1` showed a melting point of 261 °C.

Compound `CC(C)(C)c1cc(NC(=O)Nc2ccc(-c3c(C(N)=O)[nH]c4ccccc34)cc2)no1` displayed a melting point of 176 to 178 °C.

In turn, `C[C@H]1CCC[C@@](O)(CNC(=O)c2c(Cl)ccc3nc(N4CC[C@H](O)C4)ccc23)C1` returned a melting point of 222 °C.

`Cc1oc2c(NC(=O)c3c(Cl)ccc(CO)c3Cl)cccc2c1C` yielded a melting point of 258 to 261 °C.

The compound `CCCCn1ncc(/C=C(\Cc2cc3c(cc2OC)CCO3)C(=O)OCC)c1-c1ccc(Cl)cc1O` returned a melting point of 158 to 160 °C.

For the compound `O=C(O)COc1cccc2c1CCc1sc(S(=O)(=O)CCC(c3ccccc3)c3ccccc3)nc1-2`, the melting point lay in the range of 175 to 176 °C.

Turning to `CCCCOc1c(CNC(=O)OC(C)(C)C)n(CC(C)C)c(=O)c2ccc(-c3nc(C)c(C(=O)OCC)s3)cc12`, the melting point was in the range of 146 to 147 °C.

Compound `Cc1oncc1C(=O)N1CCOCC1` gave a melting point of 42 to 44 °C.

`N#CC(CCOc1ccccc1)(Cn1cncn1)c1ccccc1` (centres undefined): the melting point fell in the range of 64 to 66 °C.

The compound `CC1(C)Oc2cc3nonc3cc2C(N2CCC(O)C2=O)C1O` (centres undefined) displayed a melting point of 195 to 196 °C.

As for `C=CCN(CC=C)c1nc(NC(C)=O)n2oc(=O)nc2n1`, the melting point lay in the range of 164 to 165 °C.

For `CCS(=O)(=O)c1nsc(NC(=O)NC)c1C(N)=O`, the melting point is 219 to 220 °C.

`O=C(Nc1cc(C(F)(F)F)on1)c1ccccc1` returned a melting point of 152 to 154 °C.

Turning to `Cn1cc(C(=O)NCc2ccc(Cl)cc2)c(=O)c2cc(CN3CCOCC3)cc(C#CCCCO)c21`, the melting point fell in the range of 179 to 182 °C.

`CCn1c(=O)n(O)c(=O)c2cc(F)c(N3CCN(C)CC3)cc21` registered a melting point of 132 to 134 °C.
